≈ marks a conversion by molar mass, not a printed value. Read-outs that look alike come from different tables or passages of the source.
Legend:
[1] = tested on: Staphylococcus aureus (ATCC 43300); assay: Antibacterial MIC, broth microdilution (CLSI); type: cell-based; details: for MIC80: Staphylococcus aureus, ATCC43300, read-out: MIC80 S. aureus; for S. aureus Selectivity Indices, Group / S. aureus Selectivity Index (SI): SI, IC50 (μM)/MIC80 (μM), HEK293 cytotoxicity; for S. aureus Selectivity Index (SI): numeric value
[2] = tested on: Enterococcus faecalis (ATCC 51299); assay: Antibacterial MIC, broth microdilution (CLSI); type: cell-based; details: for MIC80: Enterococcus faecalis, ATCC51299, read-out: MIC80 E. faecalis
[3] = tested on: Escherichia coli (ATCC 25922); assay: Antibacterial MIC, broth microdilution (CLSI); type: cell-based; details: Escherichia coli, ATCC25922; read-out: MIC80 E. coli
T. vaginalis = assay: Trichomonas resorufin assay; type: cell-based; details: for IC50: Trichomonas vaginalis, read-out: IC50 T. vaginalis; for T. vaginalis Selectivity Indices, Group: SI, IC50 (μM)/IC50 (μM), HEK293 cytotoxicity
[4] = tested on: Genomic double stranded DNA (salmon); assay: Fluorescence intercalator displacement (FID) assay, SYBR-safe probe; details: 20 μM compound, 30° C., lower % = stronger binding
How it was run: (§1)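 Probe displacement was measured at 30 °C in 1 mM phosphate pH 7.4 containing SybrSafe (12500-fold dilution), 3.76 ng/mL nucleic acid (salmon dsDNA or polyAU dsRNA) and 20 μM compound. Fluorescence loss is normalised between probe-only and probe-plus-nucleic-acid controls.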

[5] = tested on: PolyAU double stranded RNA; assay: as above; details: 20 μM compound, 30° C., lower % = stronger binding
How it was run: as §1

C. neoformans (F10025) = details: Cryptococcus neoformans, read-out: MIC99 C. neoformans
[6] = tested on: A. fumigatus A1160 (MFIG001); details: Aspergillus fumigatus, read-out: MIC99 A. fumigatus A1160
Protocol: (§2) The Minimum Inhibitory Concentration (MIC, at 99% inhibition) of the compounds was determined using the broth microdilution method as recommended by EUCAST (EUCAST Definitive Document E.DEF 9.3.2, Method for the determination of broth dilution minimum inhibitory concentrations of antifungal agents for conidia forming moulds and EUCAST Definitive Document E.DEF 7.3.2 Method for the determination of broth dilution minimum inhibitory concentrations of antifungal agents for yeasts).

[7] = tested on: Rhizopus arrhizus (NEQAS12.35321); details: read-out: MIC99 Rhizopus arrhizus
Protocol: as §2

Candida auris (H.17.157) = details: Candidozyma auris, read-out: MIC99 Candida auris
[8] = tested on: Candida glabrata (ACPF3309); details: Nakaseomyces glabratus, read-out: MIC99 Candida glabrata
[9] = SI, IC50 (μM)/MIC80 (μM), HEK293 cytotoxicity, Alkyl Amidines and NH Pyrroles

CCCCCNC(=N)CCNC(=O)c1cc(NC(=O)c2cc(NC(=O)c3ccc(/C=C/c4cnc5ccccc5c4)cc3)cn2C)cn1C [Ia35, (E)-N-(3-imino-3-(pentylamino)propyl)-1-methyl-4-(1-methyl-4-(4-(2-(quinolin-3-yl)vinyl)benzamido)-1H-pyrrole-2-carboxamido)-1H-pyrrole-2-carboxamide]
MIC80 [1]: < 5 µM
MIC80 [2]: 5 to 25 µM (≈ 3.29 to 16.5 µg/mL)
MIC80 [3]: > 100 µM
IC50 (T. vaginalis): 1 to 5 µM
% Normalised Fluorescence with gDNA [4]: 21%
% Normalised Fluorescence with polyAU RNA [5]: 3%
MIC99 (C. neoformans (F10025)): 25 to 50 µg/mL (≈ 37.9 to 75.9 µM)
MIC99 [6]: > 50 µg/mL
MIC99 [7]: > 50 µg/mL
MIC99 (Candida auris (H.17.157)): > 50 µg/mL
MIC99 [8]: 5 to 25 µg/mL (≈ 7.59 to 37.9 µM)

[H]/N=C(\CCNC(=O)c1cc(NC(=O)c2cc(NC(=O)c3ccc(C=Cc4ccc5nonc5c4)cc3)cn2C)cn1C)N1CCOCC1 [Ib6, (E)-4-(4-(2-(benzo[c][1,2,5]oxadiazol-5-yl)vinyl)benzamido)-N-(5-((3-imino-3-morpholinopropyl)carbamoyl)-1-methyl-1H-pyrrol-3-yl)-1-methyl-1H-pyrrole-2-carboxamide]
MIC80 [1]: 5 to 25 µM (≈ 3.25 to 16.2 µg/mL)
MIC80 [2]: 25 to 100 µM (≈ 16.2 to 65 µg/mL)
MIC80 [3]: > 100 µM
IC50 (T. vaginalis): > 50 µM
% Normalised Fluorescence with gDNA [4]: 11%
% Normalised Fluorescence with polyAU RNA [5]: 49%
MIC99 (C. neoformans (F10025)): 25 to 50 µg/mL (≈ 38.5 to 77 µM)
MIC99 [7]: 5 to 25 µg/mL (≈ 7.7 to 38.5 µM)
MIC99 [8]: 25 to 50 µg/mL (≈ 38.5 to 77 µM)

[H]/N=C(\CCNC(=O)c1cc(NC(=O)c2cc(NC(=O)c3ccc(C=Cc4ccc5nonc5c4)cc3)cn2C)cn1C)N1CCSCC1 [Ib8, (E)-4-(4-(2-(benzo[c][1,2,5]oxadiazol-5-yl)vinyl)benzamido)-N-(5-((3-imino-3-thiomorpholinopropyl)carbamoyl)-1-methyl-1H-pyrrol-3-yl)-1-methyl-1H-pyrrole-2-carboxamide]
MIC80 [1]: < 5 µM
MIC80 [2]: < 5 µM
MIC80 [3]: > 100 µM
IC50 (T. vaginalis): 1 to 5 µM
% Normalised Fluorescence with gDNA [4]: 15%
% Normalised Fluorescence with polyAU RNA [5]: 4%
MIC99 (C. neoformans (F10025)): 5 to 25 µg/mL (≈ 7.51 to 37.5 µM)
MIC99 [6]: 5 to 25 µg/mL (≈ 7.51 to 37.5 µM)
MIC99 [7]: 5 to 25 µg/mL (≈ 7.51 to 37.5 µM)
MIC99 [8]: < 5 µg/mL

CCCC/N=C(\CCNC(=O)c1cc(NC(=O)c2cc(NC(=O)c3ccc(/C=C/c4cnc5ccccc5c4)cc3)cn2C)cn1C)NCCCC [Ia38, N—((E)-3-(butylamino)-3-(butylimino)propyl)-1-methyl-4-(1-methyl-4-(4-((E)-2-(quinolin-3-yl)vinyl)benzamido)-1H-pyrrole-2-carboxamido)-1H-pyrrole-2-carboxamide]
MIC80 [1]: < 5 µM
MIC80 [2]: 25 to 100 µM (≈ 17.5 to 70.1 µg/mL)
MIC80 [3]: > 100 µM
IC50 (T. vaginalis): 5 to 50 µM
% Normalised Fluorescence with gDNA [4]: 10%
% Normalised Fluorescence with polyAU RNA [5]: 4%
MIC99 (C. neoformans (F10025)): 25 to 50 µg/mL (≈ 35.7 to 71.3 µM)
MIC99 [6]: > 50 µg/mL
MIC99 [8]: 5 to 25 µg/mL (≈ 7.13 to 35.7 µM)

CCNC(=N)CCNC(=O)c1cc(NC(=O)c2cc(NC(=O)c3ccc(/C=C/c4cccc(OC)c4)cc3)cn2C)cn1C [Ia22, (E)-N-(3-(ethylamino)-3-iminopropyl)-4-(4-(4-(3-methoxystyryl)benzamido)-1-methyl-1H-pyrrole-2-carboxamido)-1-methyl-1H-pyrrole-2-carboxamide]
MIC80 [1]: 5 to 25 µM (≈ 2.98 to 14.9 µg/mL)
MIC80 [2]: < 5 µM
E. faecalis Selectivity Indices, Group [2, 9]: C (Group C: 5 < SI <= 10)
MIC80 [3]: > 100 µM
IC50 (T. vaginalis): 1 to 5 µM
% Normalised Fluorescence with gDNA [4]: 3%
% Normalised Fluorescence with polyAU RNA [5]: 5%
MIC99 (C. neoformans (F10025)): 25 to 50 µg/mL (≈ 42 to 83.9 µM)
MIC99 [6]: > 50 µg/mL
MIC99 [8]: 5 to 25 µg/mL (≈ 8.39 to 42 µM)

COCCOCC[N+](C)(C)CCNC(=O)c1cc(NC(=O)c2cc(NC(=O)c3ccc(/C=C/c4cnc5ccccc5c4)cc3)cn2C)cn1C [Ic18, (E)-2-(2-methoxyethoxy)-N,N-dimethyl-N-(2-(1-methyl-4-(1-methyl-4-(4-(2-(quinolin-3-yl)vinyl)benzamido)-1H-pyrrole-2-carboxamido)-1H-pyrrole-2-carboxamido)ethyl)ethan-1-aminium]
S. aureus Selectivity Indices, Group ([1]; Quaternary ammoniums): C (Group C: 5 < SI <= 10)
MIC80 [1]: < 5 µM
MIC80 [2]: < 5 µM
E. faecalis Selectivity Indices, Group ([2]; SI, IC50 (μM)/MIC80 (μM), HEK293 cytotoxicity, Quaternary ammoniums): D (Group D: SI > 5)
E. faecalis Selectivity Index (SI) ([2]; SI, IC50 (μM)/MIC80 (μM), HEK293 cytotoxicity, numeric value): 5.1
MIC80 [3]: > 100 µM
T. vaginalis Selectivity Indices, Group (T. vaginalis; Quaternary ammoniums): C (Group C: 1.5 < SI <= 3)
IC50 (T. vaginalis): 1 to 5 µM
MIC99 (C. neoformans (F10025)): 5 to 25 µg/mL
MIC99 [6]: > 50 µg/mL
MIC99 [7]: 25 to 50 µg/mL
MIC99 (Candida auris (H.17.157)): > 50 µg/mL
MIC99 [8]: < 5 µg/mL

[H]/N=C(\CCNC(=O)c1cc(NC(=O)c2cc(NC(=O)c3ccc(C=Cc4ccc(N(C)C)cc4)nc3)cn2C)cn1C)NCCCCCCCCC [Ia32, (E)-6-(4-(dimethylamino)styryl)-N-(5-((5-((3-imino-3-(nonylamino)propyl)carbamoyl)-1-methyl-1H-pyrrol-3-yl)carbamoyl)-1-methyl-1H-pyrrol-3-yl)nicotinamide]
S. aureus Selectivity Indices, Group ([1]; Alkyl Amidines and NH Pyrroles): C (Group C: 5 < SI <= 10)
MIC80 [1]: < 5 µM
MIC80 [2]: > 100 µM
MIC80 [3]: > 100 µM
IC50 (T. vaginalis): > 50 µM
% Normalised Fluorescence with gDNA [4]: 67%
% Normalised Fluorescence with polyAU RNA [5]: 23%
MIC99 (C. neoformans (F10025)): 5 to 25 µg/mL (≈ 7.06 to 35.3 µM)
MIC99 [6]: > 50 µg/mL
MIC99 [7]: > 50 µg/mL
MIC99 (Candida auris (H.17.157)): > 50 µg/mL
MIC99 [8]: 5 to 25 µg/mL (≈ 7.06 to 35.3 µM)

Cn1cc(NC(=O)c2cc(NC(=O)c3ccc(/C=C/c4cnc5ccccc5c4)cc3)cn2C)cc1C(=O)NCCC(=N)N1CCCCC1 [Ib1, (E)-N-(3-imino-3-(piperidin-1-yl)propyl)-1-methyl-4-(1-methyl-4-(4-(2-(quinolin-3-yl)vinyl)benzamido)-1H-pyrrole-2-carboxamido)-1H-pyrrole-2-carboxamide]
S. aureus Selectivity Indices, Group ([1]; Alkyl Amidines and NH Pyrroles): D (D: SI > 10)
S. aureus Selectivity Index (SI) [1]: 11
MIC80 [1]: < 5 µM
MIC80 [2]: < 5 µM
MIC80 [3]: > 100 µM
IC50 (T. vaginalis; resorufin assay): 1 to 5 µM
% Normalised Fluorescence with gDNA [4]: 23%
% Normalised Fluorescence with polyAU RNA [5]: 12%
MIC99 (C. neoformans (F10025)): 5 to 25 µg/mL (≈ 7.61 to 38.1 µM)
MIC99 [6]: 5 to 25 µg/mL (≈ 7.61 to 38.1 µM)
MIC99 [7]: 25 to 50 µg/mL (≈ 38.1 to 76.1 µM)
MIC99 (Candida auris (H.17.157)): > 50 µg/mL
MIC99 [8]: < 5 µg/mL

Cn1cc(NC(=O)c2cc(NC(=O)c3ccc(/C=C/c4cnc5ccccc5c4)cc3)cn2C)cc1C(=O)NCCC(=N)N1CCOCC1 [Ib5, (E)-N-(3-imino-3-morpholinopropyl)-1-methyl-4-(1-methyl-4-(4-(2-(quinolin-3-yl)vinyl)benzamido)-1H-pyrrole-2-carboxamido)-1H-pyrrole-2-carboxamide]
S. aureus Selectivity Indices, Group ([1]; Alkyl Amidines and NH Pyrroles): D (D: SI > 10)
S. aureus Selectivity Index (SI) [1]: 27
MIC80 [1]: < 5 µM
MIC80 [2]: < 5 µM
E. faecalis Selectivity Indices, Group [2, 9]: C (Group C: 5 < SI <= 10)
MIC80 [3]: > 100 µM
T. vaginalis Selectivity Indices, Group (T. vaginalis; Alkyl Amidines and NH Pyrroles): C (Group C: 16 < SI <= 32)
IC50 (T. vaginalis): 1 to 5 µM
% Normalised Fluorescence with gDNA [4]: 22%
% Normalised Fluorescence with polyAU RNA [5]: 13%
MIC99 (C. neoformans (F10025)): 5 to 25 µg/mL (≈ 7.59 to 37.9 µM)
MIC99 [6]: 5 to 25 µg/mL (≈ 7.59 to 37.9 µM)
MIC99 [7]: 25 to 50 µg/mL (≈ 37.9 to 75.9 µM)
MIC99 [8]: < 5 µg/mL

CN1CCN(C(=N)CCNC(=O)c2cc(NC(=O)c3cc(NC(=O)c4ccc(/C=C/c5cnc6ccccc6c5)cc4)cn3C)cn2C)CC1 [Ib3, (E)-N-(3-imino-3-(4-methylpiperazin-1-yl)propyl)-1-methyl-4-(1-methyl-4-(4-(2-(quinolin-3-yl)vinyl)benzamido)-1H-pyrrole-2-carboxamido)-1H-pyrrole-2-carboxamide]
S. aureus Selectivity Indices, Group ([1]; Alkyl Amidines and NH Pyrroles): B (Group B: 3 < SI <= 5)
MIC80 [1]: < 5 µM
MIC80 [2]: 5 to 25 µM (≈ 3.36 to 16.8 µg/mL)
MIC80 [3]: > 100 µM
IC50 (T. vaginalis): 5 to 50 µM
% Normalised Fluorescence with gDNA [4]: 13%
% Normalised Fluorescence with polyAU RNA [5]: 5%
MIC99 (C. neoformans (F10025)): 5 to 25 µg/mL (≈ 7.44 to 37.2 µM)
MIC99 [6]: > 50 µg/mL
MIC99 [8]: 5 to 25 µg/mL (≈ 7.44 to 37.2 µM)

[H]/N=C(\CCNC(=O)c1cc(NC(=O)c2cc(NC(=O)c3ccc(C=Cc4ccc5nonc5c4)cc3)cn2C)cn1C)NCCC1CCOCC1 [Ia45, (E)-4-(4-(2-(benzo[c][1,2,5]oxadiazol-5-yl)vinyl)benzamido)-N-(5-((3-imino-3-((2-(tetrahydro-2H-pyran-4-yl)ethyl)amino)propyl)carbamoyl)-1-methyl-1H-pyrrol-3-yl)-1-methyl-1H-pyrrole-2-carboxamide]
S. aureus Selectivity Indices, Group ([1]; Alkyl Amidines and NH Pyrroles): B (Group B: 3 < SI <= 5)
MIC80 [1]: 5 to 25 µM (≈ 3.46 to 17.3 µg/mL)
MIC80 [2]: > 100 µM
MIC80 [3]: > 100 µM
IC50 (T. vaginalis): 5 to 50 µM
% Normalised Fluorescence with gDNA [4]: 9%
% Normalised Fluorescence with polyAU RNA [5]: 3%
MIC99 (C. neoformans (F10025)): 5 to 25 µg/mL (≈ 7.23 to 36.1 µM)
MIC99 [6]: > 50 µg/mL
MIC99 [8]: 25 to 50 µg/mL (≈ 36.1 to 72.3 µM)
